SMILES strings stand for the structures.

These results are taken from article PMC7355942, “Cytotoxicity Evaluation of Novel bis(2-aminoethyl)amine Derivatives” (Molecules, 2020).

Data set [1] relates to A549 cells (epithelial lung carcinoma). Briefly: MTT cytotoxicity assay, A549. It counts as cell-based, human. The settings on record: for IC50: A549, MTT, mean ± SD; for SI (Selectivity Index): IC50 for normal cell line (HaCaT)/IC50 A549. An excerpt:
(§1) All derivatives of bis(2-aminoethyl)amine were screened for their in vitro cytotoxic activity against a panel of human cancer cell lines, namely colorectal adenocarcinoma (CaCo-2), epithelial lung carcinoma (A549), and melanoma (HTB-140), which is contrary to normal (HaCaT) cell lines, by using the MTT method.
(§2) Description related to conducted biological studies including cell culture, suitable conditions, and methodology was presented in our previous paper.
For orientation: Tetrazolium dyes change colour on reduction, which living cells bring about.

The next data set deals with HTB-140 cells (melanoma). The data set is described as follows: MTT cytotoxicity assay, HTB-140. The class given is cell-based, human. The conditions noted are these: for IC50: HTB-140, MTT, mean ± SD; for SI (Selectivity Index): IC50 for normal cell line (HaCaT)/IC50 HTB-140.
Description: as §1, §2

In data set [2] the test system is HaCaT cells (immortal keratinocytes). The data set is described as follows: MTT cytotoxicity assay, HaCaT normal cells. It counts as cell-based, human. The settings on record: mean ± SD.
Description: as §1, §2

Data set [3] deals with CaCo-2 cells (colorectal adenocarcinoma). The data set is described as follows: MTT cytotoxicity assay, CaCo-2. It counts as cell-based, human. The settings on record: for IC50: Homo sapiens, CaCo-2, MTT, mean ± SD; for SI (Selectivity Index): IC50 for normal cell line (HaCaT)/IC50 CaCo-2.
Description: as §1, §2

Data set [4] concerns panel of human cancer cell lines (CaCo-2, A549, HTB-140) and normal HaCaT cells. Briefly: MTT cytotoxicity assay, statements over the whole cell panel. The conditions noted are these: for antiproliferative / cytotoxic activity in words: chosen cancer and normal cell lines; for IC50: Homo sapiens, all cancer cell lines (CaCo-2, A549, HTB-140), read-out: IC50, range over cancer cell lines. The class given is cell-based.
Description: as §1, §2

Data set [5] deals with HaCaT cells (normal keratinocytes). The data set is described as follows: Lactate dehydrogenase (LDH) release assay, HaCaT. It counts as cell-based, human. The settings on record: 72 h. The procedure:
(§3) Lactate dehydrogenase assay (LDH) as a marker of cell death was evaluated for synthesized ethylthioureas 1–7. The compounds were tested at concentrations of 10, 50, and 100 µM. At the lowest dose, no activity was observed.
as §2
(§4) Figure 6 LDH release as a marker of a cell death in the HaCaT, HTB-140, CaCo-2, A549 cells, treated for 72 h with various concentrations of derivatives 3–6 (100 µM for compounds 3–5, 100 and 50 µM for 6). Data are expressed as the mean ± SD from three independent experiments, performed in triplicate. *** p ≤ 0.001, ** p ≤ 0.01, as compared to the control.

A further data set relates to A549 cells. Briefly: Apoptosis, Annexin V-FITC/7-AAD flow cytometry, A549. It counts as cell-based, human. The settings on record: A549, IC50 concentration, 72 h. The procedure: (§5) To establish in vitro, the anti-proliferative mechanism of activity, the influence of bis(2-aminoethyl)amine derivatives on early and late apoptosis was performed, using flow cytometry analysis (Figure 7).
as §2
(§6) Figure 7 The effect of derivatives 3–6 on early and late apoptosis, or necrosis in HaCaT, CaCo-2, A549, and HTB-140 cells. Cells were incubated for 72 h with tested compounds and used in their IC50 concentrations. Then cells were harvested, stained with Annexin V-FITC and 7-AAD, and analyzed using flow cytometry. Data are expressed as the percentage of cells at an early stage of apoptosis or late stage of apoptosis or necrosis. Data are given as means ± SD, *** p ≤ 0.001, ** p ≤ 0.01, as compared to the control.
Figure 8 The effect of compounds 3–6 on early and late apoptosis or necrosis in A549 cells, detected with Annexin V-FITC/7-AAD by flow cytometry. […] The upper right and upper left quadrants represent the late stage of apoptotic or necrotic cells (Annexin V-FITC positive, 7-AAD positive, Annexin V-FITC negative and 7-AAD positive staining, respectively). The lower left quadrant represents unstained A549 cells (Annexin V-FITC negative, 7-AAD negative). TEXT PRINTED IN THE PICTURE: 3: 0,1; 26,6; 36,9; 36,5 | 4: 0,1; 23,4; 47,2; 29,3 | 5: 0,2; 42,5; 28,4; 28,9 | 6: 0,2; 37,6; 19,5; 42,7 DOUBTS OF THE COPYIST ABOUT THIS PICTURE: 3, lower left quadrant value: 36,9, printed over the dot cloud, so the digits 6 and 9 are not fully certain / 6, lower left quadrant value: 19,5, partly printed over the dot cloud, so the digits 9 and 5 are not fully certain / The quadrant numbers are printed with no measure or unit. They are listed in the order upper left, upper right, lower left, lower right / The Control plot (0,1; 5,2; 87,4; 7,3) was left out because it is not a substance
Background: In flow cytometry, cells or beads pass a laser one at a time.

Data set [6] has as its system interleukin-6 (IL-6) release, A549 cells. The data set is described as follows: Interleukin-6 assay (ELISA), A549. The class given is cell-based, human. The conditions noted are these: A549, IC50 dose.
Description: (§7) The mechanism of cytotoxic action of bis(2-aminoethyl)-amine derivatives can be associated with reducing interleukin-6 (IL-6) levels, which include the strong pro-inflammatory particles.
as §2
(§8) Figure 9 Effects of compounds 3–6 on IL-6 levels, measured by the ELISA test. Data are expressed as the mean ± SD from three independent experiments, performed in triplicate. *** p ≤ 0.001, ** p ≤ 0.01, * p ≤ 0.05, as compared to the control.
For orientation: In an ELISA, binding on a coated surface is turned into a signal by an enzyme label.

Another data set relates to HTB-140 cells. Briefly: Apoptosis, Annexin V-FITC/7-AAD flow cytometry, HTB-140. It counts as cell-based, human. The settings on record: HTB-140, IC50 concentration, 72 h. The procedure: as §5, §2, §6
A further data set concerns CaCo-2 cells. The data set is described as follows: Apoptosis, Annexin V-FITC/7-AAD flow cytometry, CaCo-2. The class given is cell-based, human. The conditions noted are these: CaCo-2, IC50 concentration, 72 h. The procedure:
as §5, §2, §6

Data set [7] deals with HaCaT, HTB-140, CaCo-2, A549 cells. The data set is described as follows: Lactate dehydrogenase (LDH) release assay, statements over several cell lines. It counts as cell-based, human. The conditions noted are these: pathological cell lines (HTB-140, CaCo-2, A549), 50 µM, 72 h. The procedure:
as §3, §2, §4

Data set [8] relates to interleukin-6 (IL-6) secretion, HTB-140 cells. The data set is described as follows: Interleukin-6 assay (ELISA), HTB-140. It counts as cell-based, human. The conditions noted are these: HTB-140, IC50 dose.
Description: as §7, §2, §8

Consider `N.N.[Cl][Pt][Cl]` [Cisplatin, reference compound], for which the IC50 in data set [1] worked out at 1.95 ± 0.83 µM; in the data set with HTB-140 cells (melanoma) it was 1.13 ± 0.19 µM; in data set [2], 2.84 ± 1.06 µM.

As for `COc1ccc(NC(=S)NCCN(CCNC(=S)Nc2ccc(OC)cc2)C(=S)Nc2ccc(OC)cc2)cc1` [Compound 1, 3-(4-methoxyphenyl)-1,1-bis{2-[3-(4-methoxyphenyl)-thioureido]ethyl}thiourea], the IC50 (in [3]; in data set [1] (Homo sapiens); in the data set on HTB-140 cells (melanoma) (Homo sapiens); in data set [2] (Homo sapiens)) was more than 100 µM throughout. For the same compound, in data set [4], the “antiproliferative / cytotoxic activity in words” value is “biologically inactive”.

Turning to `S=C(NCCN(CCNC(=S)Nc1ccccc1)C(=S)Nc1ccccc1)Nc1ccccc1` [Compound 2, 3-phenyl-1,1-bis[2-(3-phenylthioureido)ethyl]thiourea], the IC50 (in data set [3]; in data set [1] (Homo sapiens); with HTB-140 cells (melanoma) (Homo sapiens); in [2] (Homo sapiens)) was more than 100 µM throughout. Further, in data set [4], the “antiproliferative / cytotoxic activity in words” value was “biologically inactive”.

Consider `S=C(NCCN(CCNC(=S)Nc1ccc(Cl)cc1)C(=S)Nc1ccc(Cl)cc1)Nc1ccc(Cl)cc1` [Compound 3, 3-(4-chlorophenyl)-1,1-bis{2-[3-(4-chlorophenyl)thioureido]ethyl}thiourea], for which the half-inhibitory concentration (IC50) in data set [3] was 27.7 ± 3.7 µM; in [1] (Homo sapiens) it was 25 ± 2.4 µM; in the data set with HTB-140 cells (melanoma) (Homo sapiens), 22.6 ± 2 µM; in [2] (Homo sapiens) it was 29.9 ± 1.8 µM; in data set [4], 22.6 to 27.7 µM. In addition, the entries for the “SI (Selectivity Index)” value (in data set [3]; in data set [1]; in the data set on HTB-140 cells (melanoma)) were 1.08, 1.19 and 1.32, respectively. Further, the LDH release in data set [5] (100 µM) is 13.8%. The compound further displayed a late apoptosis with A549 cells of 23.5%. The “decrease of the IL-6 concentration” value in data set [6] (versus control) worked out at 1.7 times.

Regarding `S=C(NCCN(CCNC(=S)Nc1ccc(Br)cc1)C(=S)Nc1ccc(Br)cc1)Nc1ccc(Br)cc1` [Compound 4, 3-(4-bromophenyl)-1,1-bis{2-[3-(4-bromophenyl)thioureido]ethyl}thiourea], the IC50 in [3] stood at 17.2 ± 1.9 µM; in data set [1] (Homo sapiens), 16.8 ± 1.9 µM; with HTB-140 cells (melanoma) (Homo sapiens), 14.7 ± 1.5 µM; in data set [2] (Homo sapiens), 19.3 ± 3.5 µM. The “SI (Selectivity Index)” value is 1.12 in data set [3], 1.15 in data set [1] and 1.35 in the data set with HTB-140 cells (melanoma). Besides, the late apoptosis in the data set with A549 cells was 26.7%. Also, the early apoptosis in the data set on HTB-140 cells is 28.6%. Besides, in data set [6], the “inhibition of interleukin release as compared to the control, in words” value is recorded as “tenfold”.

In the case of `Fc1ccc(NC(=S)NCCN(CCNC(=S)Nc2ccc(F)c(Cl)c2)C(=S)Nc2ccc(F)c(Cl)c2)cc1Cl` [Compound 5, 3-(3-chloro-4-fluorophenyl)-1,1-bis{2-[3-(3-chloro-4-fluorophenyl)thioureido]ethyl}thiourea], the IC50 in [3] was found to be 17.9 ± 2.8 µM; in data set [1] (Homo sapiens) it was 15.4 ± 2.1 µM; with HTB-140 cells (melanoma) (Homo sapiens), 14.8 ± 3.2 µM; in [2] (Homo sapiens), 18.8 ± 4.3 µM. The “SI (Selectivity Index)” value in data set [3] worked out at 1.05; in [1], 1.21; with HTB-140 cells (melanoma) it was 1.27. The values for the late apoptosis in the data set on A549 cells and with CaCo-2 cells were 42.7% and 32.8%, respectively.

As to `S=C(NCCc1ccccc1)NCCN(CCNC(=S)NCCc1ccccc1)C(=S)NCCc1ccccc1` [Compound 6, 3-phenethyl-1,1-bis[2-(3-phenethylthioureido)ethyl]thiourea], the IC50 in data set [3] was 15.7 ± 1.7 µM; in data set [1] (Homo sapiens), 15 ± 1.7 µM; with HTB-140 cells (melanoma) (Homo sapiens), 14 ± 2.5 µM; in data set [2] (Homo sapiens) it was 16.1 ± 5.7 µM; in data set [4], 14 to 15.7 µM. The “SI (Selectivity Index)” value in data set [3] was determined as 1.02; in [1] it was 1.08; in the data set on HTB-140 cells (melanoma), 1.16. For the same compound, the LDH release in data set [5] (50 µM) turned out to be 8.3%; in [5] (100 µM) it was 17.9%. The LDH secretion in data set [7] is recorded as 8.09–10.4%. This compound registered a late apoptosis in the data set with A549 cells of 37.8%. In addition, the early apoptosis in the data set with CaCo-2 cells worked out at 55.7%. In addition, the “inhibition of IL-6 secretion, in words” value in data set [8] is on record as “two-fold”.

For the compound `COc1ccc(NC(=S)N(CCNc2nnnn2-c2ccc(OC)cc2)CCNc2nnnn2-c2ccc(OC)cc2)cc1` [Compound 7, 3-(4-methoxyphenyl)-1,1-bis(2-{[1-(4-methoxyphenyl)-1H-tetrazol-5-yl]amino}ethyl)thiourea], the concentration for half-maximal inhibition (IC50) (in data set [3]; in [1] (Homo sapiens); in the data set with HTB-140 cells (melanoma) (Homo sapiens); in data set [2] (Homo sapiens)) was more than 100 µM throughout. Also, in [4], the “antiproliferative / cytotoxic activity in words” value is “biologically inactive”.

`COc1cccc2c1C(=O)c1c(O)c3c(c(O)c1C2=O)C[C@@](O)(C(=O)CO)C[C@@H]3O[C@H]1C[C@H](N)[C@H](O)[C@H](C)O1` [Doxorubicin, reference compound]: the IC50 is 0.53 ± 0.23 µM in [3], 0.63 ± 0.21 µM in [1] (Homo sapiens), 0.47 ± 0.18 µM in the data set on HTB-140 cells (melanoma) (Homo sapiens) and 1.09 ± 0.23 µM in data set [2] (Homo sapiens). Further, the “SI (Selectivity Index)” value in data set [3] is given as 2.06; in [1], 1.73; with HTB-140 cells (melanoma), 2.32.

For orientation: IC50 means the concentration that gives 50% inhibition.
